# Read-outs that look alike come from different tables or passages of the source.
# Columns and labels:
# [1] = target: T1, fibrinogen binding to thrombin-stimulated platelets (GPIIb/IIIa fibrinogen receptor) (Homo sapiens, UniProt P05106+P08514); assay: Inhibition of Radiolabeled (125I) Fibrinogen Binding Assay; settings: read-out: Inhibition of 125I-Fibrinogen (binding to) Platelet IC50
# T1 construct: endogenous in cells; host or cells: washed platelets stimulated with human alpha-thrombin
# Description: I. Inhibition of Radiolabeled (^125 I) Fibrinogen Binding Assay, which is essentially based on the method described in Proc. Natl. Acad. Sci. USA Vol. 83, pp. 5708-5712, Aug. 1986, and is as follows.
# Platelets are washed free of plasma constituents by the albumin density-gradient technique. In each experimental mixture platelets in modified Tyrode's buffer are stimulated with human α-thrombin at 22°-25° C. for 10 minutes (3.125×10" platelets per liter and thrombin at […]). Hirudin is then added at a 25-fold excess for 5 minutes before addition of the radiolabeled ligand and any competing ligand. After these additions, the final platelet count in the mixture is 1×10"/liter. After incubation for an additional 30 minutes at 22°-25° C., bound and free ligand are separated by centrifuging 50 μl of the mixture through 300 μl of 20% sucrose at 12,000 xg for 4 minutes. The platelet pellet is then separated from the rest of the mixture to determine platelet-bound radioactivity. Nonspecific binding is measured in mixtures containing an excess of unlabeled ligand. When binding curves are analyzed by Scatchard analysis, nonspecific binding is derived as a fitted parameter from the binding isotherm by means of a computerized program. To determine the concentration of each inhibitory compound necessary to inhibit 50% of fibrinogen binding to thrombin-stimulated platelets (IC50), each compound is tested at 0.176 μgmol/liter (60 μg/ml). The IC50 is derived by plotting residual fibrinogen binding against the logarithm of the sample compound's concentration.
# Human Platelets = assay: Inhibition of Fibrinogen-Mediated Platelet Aggregation; type: cell-based; settings: thrombin-activated human platelets; for inhibition at 25 µM / Inhibition of Fibrinogen Mediated Platelet Aggregation % inhibition at 25 μM: 25 μM compound; for IC50: human fibrinogen added, rate of aggregation
# Description: II. Inhibition of Fibrinogen--Mediated Platelet Aggregation, which is essentially based on the method described in Blood, Vol. 66, No. 4, Oct. 1985, pp. 846-952, and is as follows.
# Human Platelets were isolated from freshly drawn whole blood and were suspended in 0.14 mol/L NaCl, 2.7 mmol/L […], 12 mmol/L NaHCO3, 0.42 mmol/L Na2 HPO4, 0.55 mmol/L glucose, and 5 mmol/L Hepes, pH 7.35 at 2×10^8 platelets/ml. The suspension was incubated at 37° C. An aliquot of 0.4 ml of platelet suspension was activated by human thrombin at a final concentration of 2 μg/ml of thrombin for one minute. After one minute the reaction was stopped by a thrombin inhibitor. Serial dilution of the compound being tested was then added to the activated platelet, the reaction was allowed to proceed for one minute, followed by the addition of human fibrinogen at a final concentration of […] of fibrinogen. Platelet aggregation was then recorded by an aggregometer. Rate of aggregation was used to calculate IC50.
# [2] = thrombin-stimulated washed platelets, 22-25° C.
# [3] = no inhibition at concentrations of 50 μM or lower
# T1 sequence (P08514 32-887 limits assumed): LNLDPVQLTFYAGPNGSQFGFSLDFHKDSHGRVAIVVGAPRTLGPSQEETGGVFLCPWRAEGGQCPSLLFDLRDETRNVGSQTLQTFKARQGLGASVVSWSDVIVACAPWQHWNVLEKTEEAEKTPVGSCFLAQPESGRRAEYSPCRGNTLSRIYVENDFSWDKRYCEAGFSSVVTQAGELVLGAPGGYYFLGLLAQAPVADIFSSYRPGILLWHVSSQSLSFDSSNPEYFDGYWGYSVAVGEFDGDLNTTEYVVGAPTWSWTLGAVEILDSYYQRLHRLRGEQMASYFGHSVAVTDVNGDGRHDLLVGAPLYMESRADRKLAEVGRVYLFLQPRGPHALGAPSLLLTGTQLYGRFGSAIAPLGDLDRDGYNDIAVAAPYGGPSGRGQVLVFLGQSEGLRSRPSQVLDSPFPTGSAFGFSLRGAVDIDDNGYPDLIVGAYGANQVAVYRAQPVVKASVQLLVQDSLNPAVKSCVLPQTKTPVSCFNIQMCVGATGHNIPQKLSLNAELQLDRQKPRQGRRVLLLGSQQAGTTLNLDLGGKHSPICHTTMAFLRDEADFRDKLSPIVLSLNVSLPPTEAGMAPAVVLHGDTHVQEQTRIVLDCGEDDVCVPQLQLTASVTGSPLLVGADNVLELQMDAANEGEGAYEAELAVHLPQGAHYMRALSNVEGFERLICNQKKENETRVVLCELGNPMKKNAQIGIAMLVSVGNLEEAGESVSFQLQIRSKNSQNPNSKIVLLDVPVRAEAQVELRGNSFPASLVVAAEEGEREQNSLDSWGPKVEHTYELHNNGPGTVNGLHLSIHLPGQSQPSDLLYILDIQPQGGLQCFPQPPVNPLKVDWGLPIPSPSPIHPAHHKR
# T1 sequence (P08514 891-1039 limits assumed): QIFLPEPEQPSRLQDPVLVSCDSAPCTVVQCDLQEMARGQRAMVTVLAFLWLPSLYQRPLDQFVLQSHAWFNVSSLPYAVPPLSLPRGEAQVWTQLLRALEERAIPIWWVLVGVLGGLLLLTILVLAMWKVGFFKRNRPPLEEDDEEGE
# T1 sequence (P05106 27-788): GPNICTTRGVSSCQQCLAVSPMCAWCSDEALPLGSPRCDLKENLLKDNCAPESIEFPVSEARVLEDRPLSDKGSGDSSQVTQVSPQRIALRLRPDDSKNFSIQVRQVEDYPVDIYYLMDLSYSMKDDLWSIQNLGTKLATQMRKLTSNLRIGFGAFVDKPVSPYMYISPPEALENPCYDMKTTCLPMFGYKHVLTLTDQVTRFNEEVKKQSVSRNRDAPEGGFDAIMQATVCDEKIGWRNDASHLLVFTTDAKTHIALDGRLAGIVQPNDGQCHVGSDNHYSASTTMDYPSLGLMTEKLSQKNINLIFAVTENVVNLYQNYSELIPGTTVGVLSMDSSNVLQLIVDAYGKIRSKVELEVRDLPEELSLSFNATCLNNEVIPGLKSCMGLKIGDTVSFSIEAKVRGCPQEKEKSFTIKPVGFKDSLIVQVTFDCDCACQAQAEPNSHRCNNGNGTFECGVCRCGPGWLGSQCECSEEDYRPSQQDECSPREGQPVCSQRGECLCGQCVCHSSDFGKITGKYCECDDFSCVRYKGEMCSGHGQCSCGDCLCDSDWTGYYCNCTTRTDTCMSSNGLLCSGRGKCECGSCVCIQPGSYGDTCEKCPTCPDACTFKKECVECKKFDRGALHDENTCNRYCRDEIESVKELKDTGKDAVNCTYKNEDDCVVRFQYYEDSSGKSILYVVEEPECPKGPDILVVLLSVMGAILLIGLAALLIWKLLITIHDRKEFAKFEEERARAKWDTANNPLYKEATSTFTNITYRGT
SMILES,"IC50 [1, 2] [µM]","IC50 [1, 3] [µM]",IC50 (Human Platelets; Platelet) [µM],inhibition at 25 µM (Human Platelets; Platelet) [%],Inhibition of Fibrinogen Mediated Platelet Aggregation % inhibition at 25 μM (Human Platelets) [%],IC50 (Human Platelets) [µM]
CC(C)[C@H](NC(=O)[C@H](CC(=O)O)NC(=O)c1ccc(CNC(=N)N)cc1)C(=O)O [N-(4-guanidinomethylbenzoyl)-L-aspartyl-L-valine],22,,,16,,
CC(C)[C@H](NC(=O)[C@H](CC(=O)O)NC(=O)c1cccc(CNC(=N)N)c1)C(=O)O [N-(3-guanidinomethylbenzoyl)-L-aspartyl-L-valine],,≥ 50,30.2,53,,
CC(C)[C@H](NC(=O)[C@H](CC(=O)O)NC(=O)c1ccc(CCCNC(=N)N)cc1)C(=O)O [4-(3-Guanidinopropyl)benzoyl-L-aspartyl-L-valine],,,7.6,83.3,,
CC(C)[C@H](NC(=O)[C@H](CC(=O)O)NC(=O)c1cccc(CCCNC(=N)N)c1)C(=O)O [3-(3-Guanidinopropyl)benzoyl-L-aspartyl-L-valine],,≥ 50,,52,,
CC(C)[C@H](NC(=O)[C@H](CC(=O)O)NC(=O)c1ccc(CCNC(=N)N)cc1)C(=O)O [4-(2-quanidinoethyl)benzoyl]-L-aspartyl-L-valine],10.9,,,,85.0,7.7
"CC(C)[C@H](NC(=O)[C@H](CC(=O)O)NC(=O)c1ccc(NC(=N)N)cc1)C(=O)O [4-Guanidinobenzoyl-L-aspartyl-L-valine, N-(4-quanidinobenzoyl)-L-aspartyl-L-valine]",,,,,33.0,
CC(C)[C@H](NC(=O)[C@H](CC(=O)O)NC(=O)Cc1cccc(CNC(=N)N)c1)C(=O)O [3-Guanidinomethylphenylacetoyl-L-aspartyl-L-valine],,,,15.2,,
CC(C)[C@H](NC(=O)[C@H](CC(=O)O)NC(=O)c1cccc(CCNC(=N)N)c1)C(=O)O [N-[3-(2-guanidinoethyl)benzoyl]-L-aspartyl-L-valine],115,,33.1,37,,
CC(C)[C@H](NC(=O)[C@H](CC(=O)O)NC(=O)Cc1ccc(CNC(=N)N)cc1)C(=O)O [4-Guanidinomethyl phenylacetoyl-L-aspartyl-L-valine],,≥ 50,,42,,

# Second part, led by results:
"IC50 [1, 2] [µM]","IC50 [1, 3] [µM]",IC50 (Human Platelets; Platelet) [µM],SMILES,inhibition at 25 µM (Human Platelets; Platelet) [%],Inhibition of Fibrinogen Mediated Platelet Aggregation % inhibition at 25 μM (Human Platelets) [%],IC50 (Human Platelets) [µM]
20,,,CC(C)[C@H](NC(=O)[C@H](CC(=O)O)NC(=O)Cc1ccc(NC(=N)N)cc1)C(=O)O [N-(4-guanidinophenylacetoyl)-L-aspartyl-L-valine],43,,
4.5,,14,CC(C)[C@H](NC(=O)[C@H](CC(=O)O)NC(=O)CCc1ccc(NC(=N)N)cc1)C(=O)O [3-(4-guanidinophenyl)propanoyl-L-aspartyl-L-valine],65,,
,≥ 50,,"CC(C)[C@H](NC(=O)[C@H](CC(=O)O)NC(=O)c1cccc(NC(=N)N)c1)C(=O)O [3-Guanidinobenzoyl-L-aspartyl-L-valine, N-(3-guanidinobenzoyl)-L-aspartyl-L-valine]",6.3,,
0.25,,2.8,CC(C)[C@H](NC(=O)[C@H](CC(=O)O)NC(=O)C=Cc1ccc(NC(=N)N)cc1)C(=O)O [4-Guanidino cinnamoyl-L-aspartyl-L-valine],25,,
